{"source": "patent US20250152612A1", "about": "“POLYPEPTIDE COUPLED BORON CARRYING AGENT, PREPARATION METHOD THEREFOR, AND PHARMACEUTICAL FORMULATION” (Peking University, priority 2021, published 2025)", "key": {"A375 cells": {"test_system": "A375 cells", "settings": "12 hours incubation; B content per 10^6 cells; FIG. 4", "experimental": "(§1) 0.2 mg/g. 0.4 mg/g. 0.6 mg/g and 0.8 mg/g, added to U87MG, U251, A375, A549, HS683 and Hep cell lines cultured in 25 T petri dishes, respectively, and incubated in a thermostatic incubator for 12 hours. Subsequently, the cells and culture medium were separated, and the number of cells was determined. After digesting the cells with concentrated nitric acid, the B content in the cells was determined by ICP-AES.\n(§2) Meanwhile, the BPA was formulated into aqueous solutions of 0.1 mg/g, 0.2 mg/g, 0.4 mg/g, 0.6 mg/g, and 0.8 mg/g, added into U87MG, U251, A375, A549, HS683 and Hep cell lines cultured in 25 T petri dishes, respectively, and incubated in a thermostatic incubator for 12 hours. Subsequently, the cells and culture medium were separated, and the number of cells was determined. After digesting the cells with concentrated nitric acid, the B content in the cells was determined by ICP-AES.\n(§3) The […] is 249.772 nm. After determination, the B content contained in every 10^6 cells can be calculated and plotted in FIG. 4."}, "HS683 cells": {"test_system": "HS683 cells", "settings": "12 hours incubation; B content per 10^6 cells; FIG. 4", "experimental": "as §1, §2, §3"}}}
{"substance": "N-4-carboxyphenylboronic acid amide-arginine-lysine-lysine-lysine-arginine-arginine-glutamine-arginine-arginine-arginine [compound 2]", "values": [{"measurement": "uptake in A375 cells compared with BPA", "setting": "A375 cells", "value": "significantly higher than BPA"}, {"measurement": "uptake in cerebral glioma HS683 cells compared with BPA", "setting": "HS683 cells", "value": "significantly higher than BPA"}]}
